Source: patent US11542240B2, “STK19 inhibitors for treatment of cancer” (TRUSTEES OF BOSTON UNIVERSITY, priority 2018, dated 2023)
Like-named read-outs stand apart in the source and are kept apart here.

Columns and labels:
Experiment in all cases: biochemical
Type in all cases: binding
[1] = molecular target: panel of 468 diverse kinases (Homo sapiens, UniProt Q13523); settings: PRP4; 1000 nM; read-out: Percent Control
[2] = molecular target: panel of 468 diverse kinases (Homo sapiens, UniProt O75385); settings: ULK1; 1000 nM; read-out: Percent Control
[3] = molecular target: panel of 468 diverse kinases (Homo sapiens, UniProt P11309); settings: PIM1; 1000 nM; read-out: Percent Control
[4] = molecular target: panel of 468 diverse kinases (Homo sapiens, UniProt O00141); settings: SGK; 1000 nM; read-out: Percent Control
[5] = molecular target: panel of 468 diverse kinases (Homo sapiens, UniProt Q9NYL2); settings: ZAK; 1000 nM; read-out: Percent Control
[6] = molecular target: panel of 468 diverse kinases (Homo sapiens, UniProt P10721, L576P); settings: KIT(L576P); 1000 nM; read-out: Percent Control
[7] = molecular target: panel of 468 diverse kinases (Homo sapiens, UniProt Q13470); settings: TNK1; 1000 nM; read-out: Percent Control
[8] = molecular target: panel of 468 diverse kinases (Homo sapiens, UniProt Q9BYP7); settings: WNK3; 1000 nM; read-out: Percent Control
[9] = molecular target: panel of 468 diverse kinases (Homo sapiens, UniProt P10721, T670I/V559D); settings: KIT(V559D,T670I); 1000 nM; read-out: Percent Control
[10] = molecular target: panel of 468 diverse kinases (Homo sapiens, UniProt P07949, V804L); settings: RET(V804L); 1000 nM; read-out: Percent Control
[11] = molecular target: panel of 468 diverse kinases (Homo sapiens, UniProt Q9UQ88); settings: CDC2L2; 1000 nM; read-out: Percent Control
[12] = molecular target: panel of 468 diverse kinases (Homo sapiens, UniProt Q15418); settings: 1000 nM, read-out: Percent Control
[13] = molecular target: panel of 468 diverse kinases (Homo sapiens, UniProt P00533, L858R/T790M); settings: EGFR(L858R, T790M); 1000 nM; read-out: Percent Control
[14] = molecular target: panel of 468 diverse kinases (Homo sapiens, UniProt Q9UPE1); settings: SRPK3; 1000 nM; read-out: Percent Control
[15] = molecular target: panel of 468 diverse kinases (Homo sapiens, UniProt P12931); settings: SRC; 1000 nM; read-out: Percent Control
[16] = molecular target: panel of 468 diverse kinases (Homo sapiens, UniProt Q9BUB5); settings: MKNK1; 1000 nM; read-out: Percent Control
[17] = molecular target: panel of 468 diverse kinases (Homo sapiens, UniProt Q96NX5); settings: CAMK1G; 1000 nM; read-out: Percent Control
[18] = molecular target: panel of 468 diverse kinases (Homo sapiens, UniProt Q15746); settings: MYLK; 1000 nM; read-out: Percent Control
[19] = molecular target: panel of 468 diverse kinases (Homo sapiens, UniProt P06213); settings: INSR; 1000 nM; read-out: Percent Control
[20] = molecular target: panel of 468 diverse kinases (Homo sapiens, UniProt O14730); settings: RIOK3; 1000 nM; read-out: Percent Control
[21] = molecular target: panel of 468 diverse kinases (Homo sapiens, UniProt P17948); settings: FLT1; 1000 nM; read-out: Percent Control
[22] = molecular target: panel of 468 diverse kinases (Homo sapiens, UniProt Q02156); settings: PRKCE; 1000 nM; read-out: Percent Control
[23] = molecular target: panel of 468 diverse kinases (Homo sapiens, UniProt Q07002); settings: PCTK3; 1000 nM; read-out: Percent Control
[24] = molecular target: panel of 468 diverse kinases (Homo sapiens, UniProt P52333); settings: JAK3(JH1domain-catalytic); 1000 nM; read-out: Percent Control
[25] = molecular target: panel of 468 diverse kinases (Homo sapiens, UniProt Q00526); settings: CDK3; 1000 nM; read-out: Percent Control
[26] = molecular target: panel of 468 diverse kinases (Homo sapiens, UniProt O95835); settings: LATS1; 1000 nM; read-out: Percent Control
[27] = molecular target: panel of 468 diverse kinases (Homo sapiens, UniProt Q13873); settings: BMPR2; 1000 nM; read-out: Percent Control
[28] = molecular target: panel of 468 diverse kinases (Homo sapiens, UniProt Q04912); settings: MST1R; 1000 nM; read-out: Percent Control
[29] = molecular target: panel of 468 diverse kinases (Homo sapiens, UniProt Q5S007, G2019S); settings: LRRK2(G2019S); 1000 nM; read-out: Percent Control
[30] = molecular target: panel of 468 diverse kinases (Homo sapiens, UniProt Q02750); settings: MEK1; 1000 nM; read-out: Percent Control

Sequence of panel of 468 diverse kinases (Homo sapiens, UniProt P06213) (P06213 28-758 limits assumed): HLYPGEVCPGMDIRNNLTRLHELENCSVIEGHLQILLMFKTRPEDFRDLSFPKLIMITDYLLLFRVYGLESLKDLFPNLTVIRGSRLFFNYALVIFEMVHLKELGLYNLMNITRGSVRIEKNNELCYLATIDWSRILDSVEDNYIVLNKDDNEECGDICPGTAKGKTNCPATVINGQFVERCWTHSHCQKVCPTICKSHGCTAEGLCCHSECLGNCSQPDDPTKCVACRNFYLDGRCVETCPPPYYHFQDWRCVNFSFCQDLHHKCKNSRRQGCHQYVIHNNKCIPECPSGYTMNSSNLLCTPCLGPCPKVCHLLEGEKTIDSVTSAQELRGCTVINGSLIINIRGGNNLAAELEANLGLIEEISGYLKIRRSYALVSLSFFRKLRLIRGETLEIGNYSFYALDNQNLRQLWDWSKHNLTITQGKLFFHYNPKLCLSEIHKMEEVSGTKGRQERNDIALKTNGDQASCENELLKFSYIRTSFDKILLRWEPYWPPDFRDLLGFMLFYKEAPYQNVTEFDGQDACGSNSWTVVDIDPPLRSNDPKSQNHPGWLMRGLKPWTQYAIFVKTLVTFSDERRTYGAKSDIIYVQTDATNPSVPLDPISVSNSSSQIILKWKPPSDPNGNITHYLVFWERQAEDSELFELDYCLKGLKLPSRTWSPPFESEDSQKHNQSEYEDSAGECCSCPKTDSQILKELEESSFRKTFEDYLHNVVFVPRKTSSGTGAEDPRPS
Sequence of panel of 468 diverse kinases (Homo sapiens, UniProt P06213) (P06213 763-1382 limits assumed): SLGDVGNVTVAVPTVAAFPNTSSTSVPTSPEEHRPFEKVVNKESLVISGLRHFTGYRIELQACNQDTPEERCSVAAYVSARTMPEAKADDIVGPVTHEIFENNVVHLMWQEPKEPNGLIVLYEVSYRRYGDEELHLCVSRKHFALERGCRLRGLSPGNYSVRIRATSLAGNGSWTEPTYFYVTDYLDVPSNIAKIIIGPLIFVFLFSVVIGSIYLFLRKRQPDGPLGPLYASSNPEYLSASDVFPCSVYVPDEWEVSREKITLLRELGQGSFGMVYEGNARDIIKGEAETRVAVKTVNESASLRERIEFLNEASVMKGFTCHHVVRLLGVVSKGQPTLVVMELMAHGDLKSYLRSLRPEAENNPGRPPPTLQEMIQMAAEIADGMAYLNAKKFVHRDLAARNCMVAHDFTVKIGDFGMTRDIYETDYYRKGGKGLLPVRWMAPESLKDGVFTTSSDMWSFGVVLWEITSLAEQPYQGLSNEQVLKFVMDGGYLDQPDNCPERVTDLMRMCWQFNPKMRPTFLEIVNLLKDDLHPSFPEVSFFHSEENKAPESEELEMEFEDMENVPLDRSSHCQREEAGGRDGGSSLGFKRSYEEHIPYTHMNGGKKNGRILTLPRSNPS
Sequence of panel of 468 diverse kinases (Homo sapiens, UniProt P17948) (P17948 27-1338 limits assumed): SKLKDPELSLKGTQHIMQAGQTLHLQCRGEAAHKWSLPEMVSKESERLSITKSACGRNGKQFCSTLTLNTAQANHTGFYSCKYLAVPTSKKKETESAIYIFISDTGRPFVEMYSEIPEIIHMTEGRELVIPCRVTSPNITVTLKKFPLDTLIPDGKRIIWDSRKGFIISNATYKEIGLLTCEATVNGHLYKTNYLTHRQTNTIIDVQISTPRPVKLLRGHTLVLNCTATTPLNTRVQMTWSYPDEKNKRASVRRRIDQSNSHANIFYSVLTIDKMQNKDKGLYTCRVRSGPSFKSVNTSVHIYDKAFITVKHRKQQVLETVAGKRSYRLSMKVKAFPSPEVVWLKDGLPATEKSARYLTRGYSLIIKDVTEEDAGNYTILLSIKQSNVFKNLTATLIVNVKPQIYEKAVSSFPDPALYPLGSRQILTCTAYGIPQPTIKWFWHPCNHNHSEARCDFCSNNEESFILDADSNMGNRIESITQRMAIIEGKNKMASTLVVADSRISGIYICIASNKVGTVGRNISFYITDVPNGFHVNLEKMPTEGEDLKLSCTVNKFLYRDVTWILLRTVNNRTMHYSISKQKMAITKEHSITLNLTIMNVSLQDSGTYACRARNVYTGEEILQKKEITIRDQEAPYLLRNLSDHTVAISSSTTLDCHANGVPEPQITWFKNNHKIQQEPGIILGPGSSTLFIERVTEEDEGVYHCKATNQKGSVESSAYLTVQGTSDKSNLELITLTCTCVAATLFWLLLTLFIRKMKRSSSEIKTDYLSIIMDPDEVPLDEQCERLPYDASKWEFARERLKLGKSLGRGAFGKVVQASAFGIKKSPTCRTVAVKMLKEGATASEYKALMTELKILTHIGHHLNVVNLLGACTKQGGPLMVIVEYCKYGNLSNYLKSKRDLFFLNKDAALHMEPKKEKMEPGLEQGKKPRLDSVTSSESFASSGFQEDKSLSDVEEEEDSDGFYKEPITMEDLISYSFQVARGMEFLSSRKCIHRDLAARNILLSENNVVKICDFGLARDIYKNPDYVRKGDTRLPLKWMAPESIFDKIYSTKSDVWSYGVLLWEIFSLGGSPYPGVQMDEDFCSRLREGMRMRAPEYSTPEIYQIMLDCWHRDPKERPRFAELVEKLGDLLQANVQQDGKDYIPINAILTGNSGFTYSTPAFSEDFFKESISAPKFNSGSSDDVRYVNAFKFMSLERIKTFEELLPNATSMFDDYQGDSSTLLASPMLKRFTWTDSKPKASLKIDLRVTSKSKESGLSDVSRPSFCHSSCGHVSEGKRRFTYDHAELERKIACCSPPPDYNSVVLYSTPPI
Sequence of panel of 468 diverse kinases (Homo sapiens, UniProt P07949, V804L) (P07949 29-1114 V804L limits assumed): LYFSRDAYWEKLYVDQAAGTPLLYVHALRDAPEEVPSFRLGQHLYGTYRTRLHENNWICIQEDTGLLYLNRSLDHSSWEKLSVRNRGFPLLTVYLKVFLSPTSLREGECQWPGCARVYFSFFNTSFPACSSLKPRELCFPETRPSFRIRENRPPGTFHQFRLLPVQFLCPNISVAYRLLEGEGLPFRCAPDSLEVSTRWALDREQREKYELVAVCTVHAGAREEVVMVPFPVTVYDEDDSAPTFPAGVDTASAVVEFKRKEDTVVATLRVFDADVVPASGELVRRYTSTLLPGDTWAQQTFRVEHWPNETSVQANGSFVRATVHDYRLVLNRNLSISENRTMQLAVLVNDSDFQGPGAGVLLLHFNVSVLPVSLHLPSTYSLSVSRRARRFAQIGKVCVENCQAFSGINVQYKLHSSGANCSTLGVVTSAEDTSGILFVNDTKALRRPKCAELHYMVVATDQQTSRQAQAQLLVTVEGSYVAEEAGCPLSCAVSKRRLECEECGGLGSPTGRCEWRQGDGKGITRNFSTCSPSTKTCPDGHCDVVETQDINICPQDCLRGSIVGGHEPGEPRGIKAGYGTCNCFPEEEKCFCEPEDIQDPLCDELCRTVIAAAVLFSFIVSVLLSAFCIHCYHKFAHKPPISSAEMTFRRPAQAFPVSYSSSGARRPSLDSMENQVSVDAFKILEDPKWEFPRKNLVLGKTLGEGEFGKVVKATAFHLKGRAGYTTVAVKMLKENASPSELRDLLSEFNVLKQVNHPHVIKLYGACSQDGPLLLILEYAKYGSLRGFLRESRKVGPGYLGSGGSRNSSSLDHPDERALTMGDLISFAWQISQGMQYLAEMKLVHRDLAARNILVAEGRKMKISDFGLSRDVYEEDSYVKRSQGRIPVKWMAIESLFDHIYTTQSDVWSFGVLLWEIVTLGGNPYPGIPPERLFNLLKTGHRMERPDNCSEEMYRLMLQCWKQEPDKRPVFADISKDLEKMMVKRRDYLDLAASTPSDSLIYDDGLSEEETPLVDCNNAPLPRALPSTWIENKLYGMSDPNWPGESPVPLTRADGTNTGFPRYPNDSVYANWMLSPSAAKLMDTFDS
Sequence of panel of 468 diverse kinases (Homo sapiens, UniProt P10721, T670I/V559D) (P10721 26-976 V559D/T670I limits assumed): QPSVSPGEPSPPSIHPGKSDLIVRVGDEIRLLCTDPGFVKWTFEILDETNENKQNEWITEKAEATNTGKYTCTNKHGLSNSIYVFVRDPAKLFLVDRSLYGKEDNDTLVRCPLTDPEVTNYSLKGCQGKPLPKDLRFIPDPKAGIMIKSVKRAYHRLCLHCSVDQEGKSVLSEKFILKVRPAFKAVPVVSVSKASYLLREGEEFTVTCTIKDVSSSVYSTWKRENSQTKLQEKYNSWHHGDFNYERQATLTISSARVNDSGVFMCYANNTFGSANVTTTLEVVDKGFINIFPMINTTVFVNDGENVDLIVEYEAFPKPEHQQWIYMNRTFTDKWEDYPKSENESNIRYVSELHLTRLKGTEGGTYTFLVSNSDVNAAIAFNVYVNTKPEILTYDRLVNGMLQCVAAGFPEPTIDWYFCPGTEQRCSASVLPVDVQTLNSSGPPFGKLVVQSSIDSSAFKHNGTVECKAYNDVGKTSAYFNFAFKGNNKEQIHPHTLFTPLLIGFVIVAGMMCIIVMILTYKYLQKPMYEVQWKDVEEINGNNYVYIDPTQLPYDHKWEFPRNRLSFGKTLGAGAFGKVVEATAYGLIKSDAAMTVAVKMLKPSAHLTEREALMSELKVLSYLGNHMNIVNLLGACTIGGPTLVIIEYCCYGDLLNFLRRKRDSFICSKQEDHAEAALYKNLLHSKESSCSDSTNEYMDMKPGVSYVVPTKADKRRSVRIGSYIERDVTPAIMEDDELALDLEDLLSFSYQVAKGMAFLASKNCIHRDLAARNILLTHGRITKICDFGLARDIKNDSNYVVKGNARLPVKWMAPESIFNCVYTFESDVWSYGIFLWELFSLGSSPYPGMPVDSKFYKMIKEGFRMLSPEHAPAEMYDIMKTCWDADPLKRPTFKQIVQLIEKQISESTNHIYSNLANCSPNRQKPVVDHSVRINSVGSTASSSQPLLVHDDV
Sequence of panel of 468 diverse kinases (Homo sapiens, UniProt P10721, L576P) (P10721 26-976 L576P limits assumed): as the sequence (P10721 26-976 V559D/T670I limits assumed) above, with D534V, L551P, I645T counted along it

COc1cc2nc(NC3CC3)nc(NC3CCN(C(C)C)CC3)c2cc1OC [Formula IV]
remaining activity at 1 µM [1]: 84% | remaining activity at 1 µM [2]: 51% | remaining activity at 1 µM [3]: 90% | remaining activity at 1 µM [4]: 68% | remaining activity at 1 µM [5]: 100% | remaining activity at 1 µM [6]: 100% | remaining activity at 1 µM [7]: 67% | remaining activity at 1 µM [8]: 69% | remaining activity at 1 µM [9]: 86% | remaining activity at 1 µM [10]: 75% | remaining activity at 1 µM [11]: 99% | remaining activity at 1 µM ([12]; RSK1(Kin.Dom.1-N-terminal)): 93% | remaining activity at 1 µM ([12]; RSK1(Kin.Dom.2-C-terminal)): 98% | remaining activity at 1 µM [13]: 35% | remaining activity at 1 µM [14]: 100% | remaining activity at 1 µM [15]: 97% | remaining activity at 1 µM [16]: 100% | remaining activity at 1 µM [17]: 99% | remaining activity at 1 µM [18]: 49% | remaining activity at 1 µM [19]: 57% | remaining activity at 1 µM [20]: 100% | remaining activity at 1 µM [21]: 95% | remaining activity at 1 µM [22]: 100% | remaining activity at 1 µM [23]: 86% | remaining activity at 1 µM [24]: 70% | remaining activity at 1 µM [25]: 100% | remaining activity at 1 µM [26]: 100% | remaining activity at 1 µM [27]: 40% | remaining activity at 1 µM [28]: 100% | remaining activity at 1 µM [29]: 54% | remaining activity at 1 µM [30]: 63%
